Results from ChEMBL document CHEMBL3045370, “Design and synthesis of 6-alkyoxyl[1,2,4]triazolo[1,5-a]quinazoline derivatives with anticonvulsant activity” (Med Chem Res, 2012).
Activity calls are given as the source filed them. The calls are words filed in the database; no cut-off is given here.

Tested on: not listed separately
Experiment: Protective index, ratio of TD50 for neurotoxicity to ED50 for anticonvulsant activity in Mus musculus Kunming (mouse)
Type: toxicity, organism-based
Conditions: in vivo, read-out: Ratio TD50/ED50

| Structure (SMILES) | selectivity ratio |
| --- | --- |
| c1ccc(COc2cccc3c2cnc2ncnn23)cc1 | 9 |

Tested on: not listed separately
Experiment: Neurotoxicity against ip dosed Mus musculus Kunming (mouse) assessed as inability to maintain equilibrium on rod measured for 1 min by rota rod test
Type: toxicity, organism-based
Conditions: in vivo

| Structure (SMILES) | TD50 at 1 min [mg/kg] |
| --- | --- |
| NC(=O)N1c2ccccc2C=Cc2ccccc21 [CARBAMAZEPINE] | 76.1 |
| c1ccc(COc2cccc3c2cnc2ncnn23)cc1 | 710 |

Tested on: Mus musculus
Experiment: Anticonvulsant activity in ip dosed Mus musculus Kunming (mouse) assessed as protection against maximal electroshock-induced seizure administered 30 min prior to testing
Type: functional
Conditions: not given

| Structure (SMILES) | ED50 [mg/kg] |
| --- | --- |
| NC(=O)N1c2ccccc2C=Cc2ccccc21 [CARBAMAZEPINE] | 11.8 |
| c1ccc(COc2cccc3c2cnc2ncnn23)cc1 | 78.9 |

Tested on: Mus musculus
Experiment: Anticonvulsant activity in Mus musculus Kunming (mouse) assessed as protection against maximal electroshock-induced seizure at 100 mg/kg, ip administered 30 min prior to testing
Type: functional, organism-based
Design: dose 100 mg/kg
Conditions: not given

| Structure (SMILES) | Activity |
| --- | --- |
| Brc1ccccc1COc1cccc2c1cnc1ncnn12 | inactive |
| Fc1cccc(COc2cccc3c2cnc2ncnn23)c1 | inactive |
| Clc1ccccc1COc1cccc2c1cnc1ncnn12 | inactive |
| Clc1ccc(COc2cccc3c2cnc2ncnn23)cc1 | inactive |
| Clc1cccc(COc2cccc3c2cnc2ncnn23)c1 | inactive |
| Cc1ccc(COc2cccc3c2cnc2ncnn23)cc1 | inactive |
| CCCCCOc1cccc2c1cnc1ncnn12 | Active |
| CCCCOc1cccc2c1cnc1ncnn12 | inactive |
| c1ccc(COc2cccc3c2cnc2ncnn23)cc1 | Active |
| Clc1ccc(COc2cccc3c2cnc2ncnn23)c(Cl)c1 | inactive |
| CCCCCCCCOc1cccc2c1cnc1ncnn12 | inactive |
| CCCCCCOc1cccc2c1cnc1ncnn12 | inactive |
| Fc1ccccc1COc1cccc2c1cnc1ncnn12 | inactive |
| COc1ccc(COc2cccc3c2cnc2ncnn23)cc1 | inactive |
| Fc1ccc(COc2cccc3c2cnc2ncnn23)cc1 | inactive |
| CCCCCCCCCCOc1cccc2c1cnc1ncnn12 | inactive |
| CCCCCCCOc1cccc2c1cnc1ncnn12 | inactive |
| N#Cc1ccc(COc2cccc3c2cnc2ncnn23)cc1 | inactive |
| N#Cc1ccccc1COc1cccc2c1cnc1ncnn12 | inactive |
